Measurements taken from patent US20110097274A1, “Carbon-11 and fluorine-18 labeled radioligands for positron emission tomography (PET) imaging for the brain serotonin transporters” (priority 2002, published 2011).
Where “and” joins values, the source holds several entries; their conditions need not be identical. Equal values may be shown once.

Test system: SERT
Experiment: Baboon PET imaging: brain uptake, kinetic analysis and SERT parameters
Assay type: in vivo
Method: PET imaging protocol: PET experiments (n=20) were performed at Columbia University. Two adult male baboons (baboon A and B) were studied twice with each of the 5 radioligands (4 experiments per radioligand). All experiments took place within a 9-month period. Baboons A and B were 31 kg and 21 kg in weight at the beginning of the experimental period and 28 and 22 kg at the end, respectively. Test and retest experiments with the same radioligand were obtained on different days, with an average interval of 117±53 days.
Experiments were performed according to protocols approved by the Columbia-Presbyterian Medical Center Institutional Animal Care and Use Committee. Fasted animals were immobilized with ketamine (10 mg/kg i.m.), and anesthetized with 1.8% isoflurane via an endotracheal tube. Vital signs were monitored every 10 minutes and the temperature was kept constant at 37° C. with heated water blankets. An i.v. perfusion line was used for hydration and injection of radioligands and nonradioactive drugs. A catheter was inserted in a femoral artery for arterial blood sampling. Head was positioned at the center of the field of view as defined by imbedded laser lines. PET imaging was performed with the ECAT EXACT HR+PET scanner (Siemens/CTI, Knoxville, Tenn.). In 3D mode, this camera provides an in-plane resolution of 4.3 mm, 4.5 mm, 5.4 mm and 8.0 mm full width at half maximum (FWHM) at a distance of 0, 1, 10 and 20 cm from the center of the field of view, respectively (Brix et al., 1997). A 15 minute transmission scan was obtained prior to radioligand injection for attenuation correction. Activity was injected i.v. over 30 seconds. […] Emission data was collected in the 3D mode for 91 minutes as 21 successive frames of increasing duration (6*10 seconds, 2*1 minutes, 4*2 minutes, 2*5 minutes, and 7*10 minutes).
Image analysis: A Magnetic Resonance Image (MRI) of each baboon's brain was obtained for the purpose of identifying the regions of interest (ROI) (T1-weighted axial MRI sequence, acquired parallel to the anterior-posterior commissure, TR 34 msec, TE 5 msec, flip angle of 45 degrees, slice thickness is 1.5 mm, zero gap, matrix 1.5 mm×1 mm×1 mm voxels). The following regions were drawn on the MR images: cerebellum, midbrain, thalamus, striatum, hippocampus, temporal cortex, cingulate cortex and occipital cortex.
PET emission data were attenuation-corrected using the transmission scan, and frames were reconstructed using a Shepp filter (cutoff 0.5 cycles/projection rays). Reconstructed image files were then processed using the image analysis software MEDx (Sensor Systems, Inc., Sterling, Va.). An image was created by summing all the frames, and this summed image was used to define the registration parameters with the MR image, using between-modality automated image registration (AIR) algorithm (Woods et al., 1993). Registration parameters were then applied to the individual frames for registration to the MR data set. Regional boundaries were transferred to the individual registered PET frames, and time-activity curves were measured and decay-corrected. Right and left regions were averaged. For a given animal, the same regions were used for all radioligands.
Brain uptake: Total brain uptake was expressed as percentage of the injected dose per gram of tissue (% ID g^−1) in a region encompassing the entire brain. Regional peak time was defined as the mid-time of the frame associated with the highest activity value. To estimate the degree of wash-out from the brain captured during the scan interval (91 minutes), the decrease in activity from the peak frame to the last frame was calculated and expressed in percentage of the peak activity.
Kinetic analysis: Regional total distribution volumes (VT, mL g^−1) were derived with kinetic analysis of the regional time-activity curves, using the arterial plasma concentrations as input function. […]

[1] = BP = VT ROI − VT CER, baboons, mean ± SD of four experiments
[2] = Mean ± SD of four experiments in two baboons
[3] = baboon A, experiments of FIGS. 5-9 (FIG. 10)
[4] = baboons, mean ± SD of four experiments
[5] = last scan 90 minutes, baboons, mean ± SD of four experiments
[6] = one-tissue compartment model, baboons, mean ± SD of four experiments

With `CN([11CH3])Cc1ccccc1Sc1ccc(CF)cc1N` [[^11C]AFM, [^11C]2-[2-(Dimethylaminomethyl)phenylthio]-5-fluoromethylphenylamine] the “Binding potential Cingulate Cortex” value [1] was 8.5 ± 1.0 mL/g, the “Binding potential Hippocampus” value [1] was 20.9 ± 2.5 mL/g and the “Binding potential Midbrain” value [1] was 65.8 ± 11.7 mL/g. For the same molecule, the “Binding potential Occipital Cortex” value [1] was 7.3 ± 1.3 mL/g, the “Binding potential Striatum” value [1] was 31.3 ± 6.5 mL/g and the “Binding potential Temporal Cortex” value [1] was 11.8 ± 0.9 mL/g. For the same molecule, the “Binding potential Thalamus” value [1] was 71.3 ± 16.5 mL/g, the “Equilibrium specific to non-specific partition coefficient (V3″) Cingulate Cortex” value (Baboon A, single experiment) was 0.30 and 0.26 and the “Equilibrium specific to non-specific partition coefficient (V3″) Hippocampus” value (Baboon A, single experiment) was 0.70 and 0.75. The “Equilibrium specific to non-specific partition coefficient (V3″) Midbrain” value (Baboon A, single experiment) was 2.13 and 2.18, the “Equilibrium specific to non-specific partition coefficient (V3″) Occipital Cortex” value (Baboon A, single experiment) was 0.29 and 0.30 and the “Equilibrium specific to non-specific partition coefficient (V3″) Striatum” value (Baboon A, single experiment) was 0.97 and 0.92. For the same molecule, the “Equilibrium specific to non-specific partition coefficient (V3″) Temporal Cortex” value (Baboon A, single experiment) was 0.38 and 0.46, the “Equilibrium specific to non-specific partition coefficient (V3″) Thalamus” value (Baboon A, single experiment) was 2.10 and the “Equilibrium specific to non-specific partition coefficient (V3″) Cingulate Cortex” value (Baboon B, single experiment) was 0.30 and 0.25. For the same molecule, the “Equilibrium specific to non-specific partition coefficient (V3″) Hippocampus” value (Baboon B, single experiment) was 0.61 and 0.69, the “Equilibrium specific to non-specific partition coefficient (V3″) Midbrain” value (Baboon B, single experiment) was 1.94 and 2.33 and the “Equilibrium specific to non-specific partition coefficient (V3″) Occipital Cortex” value (Baboon B, single experiment) was 0.18 and 0.20. For the same molecule, the “Equilibrium specific to non-specific partition coefficient (V3″) Striatum” value (Baboon B, single experiment) was 1.06 and 1.11, the “Equilibrium specific to non-specific partition coefficient (V3″) Temporal Cortex” value (Baboon B, single experiment) was 0.35 and 0.37 and the “Equilibrium specific to non-specific partition coefficient (V3″) Thalamus” value (Baboon B, single experiment) was 2.46 and 2.58. For the same molecule, the “Equilibrium specific to non-specific partition coefficient (V3″) Cingulate Cortex” value [2] was 0.28 ± 0.02, the “Equilibrium specific to non-specific partition coefficient (V3″) Hippocampus” value [2] was 0.69 ± 0.06 and the “Equilibrium specific to non-specific partition coefficient (V3″) Midbrain” value [2] was 2.14 ± 0.16. For the same molecule, the “Equilibrium specific to non-specific partition coefficient (V3″) Occipital Cortex” value [2] was 0.24 ± 0.06, the “Equilibrium specific to non-specific partition coefficient (V3″) Striatum” value [2] was 1.01 ± 0.08 and the “Equilibrium specific to non-specific partition coefficient (V3″) Temporal Cortex” value [2] was 0.39 ± 0.05. For the same molecule, the “Equilibrium specific to non-specific partition coefficient (V3″) Thalamus” value [2] was 2.31 ± 0.25, the “Thalamus to cerebellum ratio equal to true equilibrium ratio (V3″+1)” value [3] was 3.10 and the “Time at which measured thalamus to cerebellum ratio equals the true equilibrium ratio (estimate of peak specific binding)” value [3] was 64 min. For the same molecule, the “K1, average of all regions and all animals” value (baboons) was 1.44 ± 0.40 mL/g/min, the “VT, average of all regions and all animals” value (baboons) was 57.5 ± 27.5 mL/g and the “k2, average of all regions and all animals” value (baboons) was 0.030 ± 0.015 min⁻¹. The “f2 (free fraction in the nonspecific distribution volume)” value (baboons, calculated from f1 and cerebellar VT) was 0.32±0.04%, the “V3″ expressed in percentage of [^11C]McN 5652 V3″” value (baboons, combining all regions) was 193±35% and the “Mean regional peak uptake time” value (baboons, mean of all regions) was 38 ± 19 min. The “Mean regional wash-out (% decrease between peak time and last scan)” value (baboons, mean of all regions) was 32±26%, the “Cingulate Cortex to cerebellum activity ratio at 90 minutes” value [4] was 1.30 ± 0.09 and the “Hippocampus to cerebellum activity ratio at 90 minutes” value [4] was 1.84 ± 0.40. For the same molecule, the “Midbrain to cerebellum activity ratio at 90 minutes” value [4] was 3.48 ± 1.09, the “Occipital Cortex to cerebellum activity ratio at 90 minutes” value [4] was 1.26 ± 0.18 and the “Regional uptake peak time Cerebellum” value [4] was 23 ± 11 min. The “Regional uptake peak time Cingulate Cortex” value [4] was 28 ± 11 min, the “Regional uptake peak time Hippocampus” value [4] was 39 ± 16 min and the “Regional uptake peak time Midbrain” value [4] was 56 ± 24 min. The “Regional uptake peak time Occipital Cortex” value [4] was 30 ± 14 min, the “Regional uptake peak time Striatum” value [4] was 44 ± 21 min and the “Regional uptake peak time Temporal Cortex” value [4] was 34 ± 14 min. The “Regional uptake peak time Thalamus” value [4] was 54 ± 22 min, the “Striatum to cerebellum activity ratio at 90 minutes” value [4] was 2.10 ± 0.24 and the “Temporal Cortex to cerebellum activity ratio at 90 minutes” value [4] was 1.44 ± 0.20. The “Thalamus to cerebellum activity ratio at 90 minutes” value [4] was 3.51 ± 0.72, the “Total brain uptake at 45 min” value (baboons, region encompassing the entire brain) was 0.016±0.002 % ID g^−1 and the “In vivo affinity relative to [^11C]DASB (times higher)” value (from Bmax/KD ratios, assuming same number of binding sites) was 3.3 times. The “Regional activity wash-out: % decrease from peak to last scan, Cerebellum” value [5] was 48 ± 28%, the “Regional activity wash-out: % decrease from peak to last scan, Cingulate Cortex” value [5] was 43 ± 27% and the “Regional activity wash-out: % decrease from peak to last scan, Hippocampus” value [5] was 26 ± 27%. The “Regional activity wash-out: % decrease from peak to last scan, Midbrain” value [5] was 16 ± 22%, the “Regional activity wash-out: % decrease from peak to last scan, Occipital Cortex” value [5] was 42 ± 27% and the “Regional activity wash-out: % decrease from peak to last scan, Striatum” value [5] was 29 ± 31%. For the same molecule, the “Regional activity wash-out: % decrease from peak to last scan, Temporal Cortex” value [5] was 36 ± 29%, the “Regional activity wash-out: % decrease from peak to last scan, Thalamus” value [5] was 18 ± 25% and the “K1 Cerebellum” value [6] was 1.52 ± 0.49 mL/g/min. For the same molecule, the “K1 Cingulate Cortex” value [6] was 1.48 ± 0.40 mL/g/min, the “K1 Hippocampus” value [6] was 1.15 ± 0.35 mL/g/min and the “K1 Midbrain” value [6] was 1.57 ± 0.41 mL/g/min. For the same molecule, the “K1 Occipital Cortex” value [6] was 1.35 ± 0.37 mL/g/min, the “K1 Striatum” value [6] was 1.48 ± 0.48 mL/g/min and the “K1 Temporal Cortex” value [6] was 1.25 ± 0.34 mL/g/min. The “K1 Thalamus” value [6] was 1.68 ± 0.42 mL/g/min, the “K2 Cerebellum” value [6] was 0.051 ± 0.021 min⁻¹ and the “K2 Cingulate Cortex” value [6] was 0.039 ± 0.012 min⁻¹. For the same molecule, the “K2 Hippocampus” value [6] was 0.023 ± 0.008 min⁻¹, the “K2 Midbrain” value [6] was 0.017 ± 0.006 min⁻¹ and the “K2 Occipital Cortex” value [6] was 0.036 ± 0.011 min⁻¹. The “K2 Striatum” value [6] was 0.025 ± 0.010 min⁻¹, the “K2 Temporal Cortex” value [6] was 0.030 ± 0.010 min⁻¹ and the “K2 Thalamus” value [6] was 0.017 ± 0.006 min⁻¹. The “VT Cerebellum (VT CER, nonspecific distribution volume)” value [6] was 30.6 ± 3.9 mL/g, the “VT Cingulate Cortex” value [6] was 39.0 ± 4.7 mL/g and the “VT Hippocampus” value [6] was 51.5 ± 6.1 mL/g. For the same molecule, the “VT Midbrain” value [6] was 96.3 ± 15.3 mL/g, the “VT Occipital Cortex” value [6] was 37.9 ± 3.6 mL/g and the “VT Striatum” value [6] was 61.9 ± 10.4 mL/g. The “VT Temporal Cortex” value [6] was 42.4 ± 4.5 mL/g and the “VT Thalamus” value [6] was 101.9 ± 20.4 mL/g.
